Counter-ions that a name gives are not always drawn.
system: KK mice (4-5 months old) suffering from diabetes mellitus; experiment: Hypoglycemic activity: blood sugar lowering in diabetic KK mice fed the test compound; type: in vivo; details: 4 per group, powdered feed containing 0.01% of test compound for 3 days, plasma glucose vs control group
Excerpt: Blood was collected from the tail veins of KK mice (4-5 months old) suffering from diabetes mellitus, and it was subjected to an assay of the blood sugar level. The mice were divided in groups (4 mice per group) as to have equal blood sugar levels on average in each group. Powdered mouse feed (F-1, Funabashi Farm) containing 0.01% of a test compound was given the mice for 3 days. Those mice groups fed with the test compound were referred to as “drug treated group”. Further, those groups fed with powdered feed free of the test compound were referred to as “control group”. Blood was collected from the tail veins of the mice 3 days later and was subjected to a centrifuge, and the glucose concentration in the resultant plasma was assayed with a glucose analyzer (Glucoloader, A&T Company). The average blood sugar lowering rate was calculated from the following formula:
Blood sugar lowering rate (%)=(Average blood sugar level in control group−Average blood sugar level in drug treated group)×100/Blood sugar level in control group

Row | Compound | Blood sugar lowering rate (%)
1 | Cn1c(COc2ccc(CC(OCc3ccc(F)cc3)C(=O)O)cc2)nc2ccc(Oc3ccc(C45CC6CC(CC(C6)C4)C5)cc3)cc21 (centres unmarked) [Example 2, 3-[4-[6-(4-Adamantan-1-ylphenoxy)-1-methyl-1H-benzimidazol-2-ylmethoxy]phenyl]-2-(4-fluorobenzyloxy)propionic acid] | 58.5
2 | Cn1c(COc2ccc(CC(OCc3ccc(F)cc3)C(=O)O)cc2)nc2ccc(Sc3cc(C(C)(C)C)c(O)c(C(C)(C)C)c3)cc21 (centres unmarked) [Example 4, 3-[4-[6-(3,5-Di-t-butyl-4-hydroxyphenylthio)-1-methyl-1H-benzimidazol-2-ylmethoxy]phenyl]-2-(4-fluorobenzyloxy)propionic acid] | 40.8
3 | CCOC(Cc1ccc(OCc2nc3ccc(OC)cc3n2C)cc1)C(=O)O.Cl (centres unmarked) [Example 9, 2-Ethoxy-3-[4-(1-methyl-6-methoxy-1H-benzimidazol-2-ylmethoxy)phenyl]propionic acid hydrochloride] | 48.4
4 | COC(=O)[C@H](Cc1ccc(OCc2nc3ccc(OC)cc3n2C)cc1)Nc1ccccc1C(=O)c1ccccc1.Cl [Example 16, N-(2-Benzoylphenyl)-4-(6-methoxy-1-methyl-1H-benzimidazol-2-ylmethoxy)phenylalanine methyl ester hydrochloride] | 32.1
5 | Cc1cc(Oc2ccc3nc(COc4ccc(C[C@H](Nc5ccccc5C(=O)c5ccccc5)C(=O)O)cc4)n(C)c3c2)cc(C)c1N [Example 20, 4-[6-(4Amino-3 ,5dimethylphenoxy)-1-methyl-1H-benzimidazol-2-ylmethoxy]-N-(2-benzoylphenyl)phenylalanine dihydrochloride] | 40.0

Source: US6596751B2, “α-substituted carboxylic acid derivatives” (Sankyo Company Limited, priority 1999, dated 2003)
